Patent publication US11235976B2, “Nanocarbon-iron composite system as well as composition, preparation method and use thereof” (Chongqing Lummy Pharmaceutical Co., LTD, priority 2017, dated 2022)

test system: HCT116 colon cancer cells; test: Cell experiment, cell survival rate; type: cell-based; conditions: iron preparation alone 13.65 μg/mL, 48 h
Description: (§1) Cells growing in a log phase are collected, the concentration of the cell suspension is adjusted, 100 μL of cell suspension is added to each well and the cells are plated (edge wells are filled with sterile PBS) at a density of 1×10^3-10^4 cells/well. The cells are incubated for 24 hours at 37° C. under the condition of 5% CO2, a nanocarbon-iron solution having a concentration gradient (nanocarbon content: 125, 62.5, 15.63 and 3.91 μg/mL; and ferric ion content: 13.65, 6.83, 1.71 and 0.43 μg/mL) is added, and three sub-wells are set. Then the cells are incubated for 48 hours at 37° C. under the condition of 5% CO2. 10 μL of CCK8 solution is added to each well and then the cells are continuously incubated for 2 hours. The absorbance of each well is measured at OD=450 nm with the microplate reader. In addition, a negative control group, nanocarbon control groups having the same concentration and iron preparation control groups having the same concentration are set.
as §1, with “and 1” for “100”, “of a 6-well plate” for “and the cells are plated (edge wells are filled with sterile PBS)”, “3×10^4” for “1×10^3-10^4”, “1.71,” for “1.71 and”, “The” for “10 μL of CCK8 solution is added to each well and then the”, “trypsinized and counted.” for “continuously incubated for 2 hours. The absorbance of each well is measured at OD=450 nm with the microplate reader.”

| Substance | Cell Survival Rate |
| --- | --- |
| ferrous sulfate | 94.07% |

test system: murine liver cancer H22 cells; test: Cell experiment, cell survival rate; type: cell-based; conditions: iron preparation alone 0.43 μg/mL, 48 h
Description: as §1
as §1, with “and 1” for “100”, “of a 6-well plate” for “and the cells are plated (edge wells are filled with sterile PBS)”, “3×10^4” for “1×10^3-10^4”, “1.71,” for “1.71 and”, “The” for “10 μL of CCK8 solution is added to each well and then the”, “trypsinized and counted.” for “continuously incubated for 2 hours. The absorbance of each well is measured at OD=450 nm with the microplate reader.”

| Substance | Cell Survival Rate |
| --- | --- |
| ferrous sulfate | 100% |

same assay, conditions: iron preparation alone 1.71 μg/mL, 48 h

| Substance | Cell Survival Rate |
| --- | --- |
| ferrous sulfate | 95.24% |

same assay, conditions: iron preparation alone 6.83 μg/mL, 48 h

| Substance | Cell Survival Rate |
| --- | --- |
| ferrous sulfate | 97.16% |

same assay, conditions: iron preparation alone 13.65 μg/mL, 48 h

| Substance | Cell Survival Rate |
| --- | --- |
| ferrous sulfate | 100% |

test system: TPC-1 thyroid cancer cells; test: Cell experiment, cell survival rate; type: cell-based; conditions: iron preparation alone 0.43 μg/mL, 48 h
Description: as §1
as §1, with “and 1” for “100”, “of a 6-well plate” for “and the cells are plated (edge wells are filled with sterile PBS)”, “3×10^4” for “1×10^3-10^4”, “1.71,” for “1.71 and”, “The” for “10 μL of CCK8 solution is added to each well and then the”, “trypsinized and counted.” for “continuously incubated for 2 hours. The absorbance of each well is measured at OD=450 nm with the microplate reader.”

| Substance | Cell Survival Rate |
| --- | --- |
| ferrous sulfate | 100% |

same assay, conditions: iron preparation alone 1.71 μg/mL, 48 h

| Substance | Cell Survival Rate |
| --- | --- |
| ferrous sulfate | 100% |

same assay, conditions: iron preparation alone 6.83 μg/mL, 48 h

| Substance | Cell Survival Rate |
| --- | --- |
| ferrous sulfate | 98.75% |

same assay, conditions: iron preparation alone 13.65 μg/mL, 48 h

| Substance | Cell Survival Rate |
| --- | --- |
| ferrous sulfate | 93.64% |

test system: A549 lung cancer cells; test: Cell experiment, cell survival rate; type: cell-based; conditions: iron preparation alone 0.43 μg/mL, 48 h
Description: as §1
as §1, with “and 1” for “100”, “of a 6-well plate” for “and the cells are plated (edge wells are filled with sterile PBS)”, “3×10^4” for “1×10^3-10^4”, “1.71,” for “1.71 and”, “The” for “10 μL of CCK8 solution is added to each well and then the”, “trypsinized and counted.” for “continuously incubated for 2 hours. The absorbance of each well is measured at OD=450 nm with the microplate reader.”

| Substance | Cell Survival Rate |
| --- | --- |
| ferrous sulfate | 100% |

same assay, conditions: iron preparation alone 1.71 μg/mL, 48 h

| Substance | Cell Survival Rate |
| --- | --- |
| ferrous sulfate | 94.18% |

same assay, conditions: iron preparation alone 6.83 μg/mL, 48 h

| Substance | Cell Survival Rate |
| --- | --- |
| ferrous sulfate | 95.12% |

same assay, conditions: iron preparation alone 13.65 μg/mL, 48 h

| Substance | Cell Survival Rate |
| --- | --- |
| ferrous sulfate | 100% |

test system: H22 metastatic lymph nodes; test: Lymph node metastasis inhibition experiment; type: in vivo, Kunming mouse; conditions: popliteal lymph nodes
Description: (§2) Milky white and thick ascites is extracted from the H22 tumor-bearing mice, the concentration is adjusted to be 3×10^7 cells/mL, 0.05 mL of cell suspension (about 1.5×10^6 cells) is inoculated subcutaneously into the left hind foot pads of each Kunming mouse, and thus a lymph node metastasis mouse model is obtained. The mice are treated when the diameter of the tumor reaches 6-8 mm and there is no ulcer and necrosis. The mice are randomly divided into four groups (10 mice per group): a negative control group (0.9% sodium chloride injection), a nanocarbon control group, an iron preparation control group and a nanocarbon-iron suspension experimental group. 10 days after inoculation, the mice are killed, and popliteal lymph nodes are collected, weighed and fixed for pathological examination.

| Substance | Weight of Lymph Node |
| --- | --- |
| ferrous sulfate | 44.27 ± 20.69 mg |

test system: subcutaneous transplantation tumors of 9 types of cancer cells; test: Tumor growth inhibition experiments, subcutaneous transplantation tumors; type: in vivo, mice; conditions: FIGS. 4-39
Description: Cells growing in a log phase are collected, the concentration of the cell suspension is adjusted to 3×10^7 cells/mL, and the cell suspension is inoculated subcutaneously into the right upper extremities of nude mice at the inoculation dosage of 0.1 mL (about 3×10^6 cells) per mouse. When the average tumor volume of the inoculated mice reaches 100 mm^3, the tumor-bearing mice are randomly divided into the following groups (8 nude mice per group): a negative control group (0.9% sodium chloride injection), a nanocarbon control group, an iron preparation control group, a nanocarbon-iron suspension experimental group, and a cis-platinum control group (intraperitoneal injection at the dosage of 5 mg/kg). The above various drugs are injected into the tumors. The tumor volume changes are recorded, and the formula for calculating the volume is Volume=(length×the square of width)/2.
Milky white and thick ascites is extracted from the H22 tumor-bearing mice, the concentration of the cell suspension is adjusted to be 3×10^7 cells/mL, 0.1 mL of cell suspension (about 3×10^6 cells) is inoculated subcutaneously into the right upper extremity of each of Kunming mice. When the average tumor volume of the inoculated mice reaches 100 mm^3, the tumor-bearing mice are randomly divided into the following groups (8 mice per group): a negative control group (0.9% sodium chloride injection), a nanocarbon control group, an iron preparation control group, a nanocarbon-iron suspension experimental group, and a cis-platinum control group (intraperitoneal injection at the dosage of 5 mg/kg). The above various drugs are injected into the tumors. The tumor volume changes are recorded, and the formula for calculating the volume is Volume=(length×the square of width)/2.

| Substance | inhibition effect on growth of 9 types of tumors |
| --- | --- |
| ferrous sulfate | do not have an inhibition effect |

test system: lymph node metastasis of 9 types of tumor cells; test: Lymph node metastasis inhibition experiment, summary; type: in vivo, mice; conditions: not given
Description: as §2, with “Cells growing in a log phase are collected,” for “Milky white and thick ascites is extracted from the H22 tumor-bearing mice,”, “concentration of the cell suspension” for “concentration”, “to” for “to be”, “the” for “0.05 mL of”, “suspension” for “suspension (about 1.5×10^6 cells)”, “nude mouse at the inoculation volume of 0.05 mL (about 1.5×10^6 cells)” for “Kunming mouse,”
as §2

| Substance | inhibition effect on the metastatic lymph nodes |
| --- | --- |
| ferrous sulfate | do not have an inhibition effect |

test system: Hela metastatic lymph nodes; test: Lymph node metastasis inhibition experiment; type: in vivo, nude mouse; conditions: popliteal lymph nodes
Description: as §2, with “Cells growing in a log phase are collected,” for “Milky white and thick ascites is extracted from the H22 tumor-bearing mice,”, “concentration of the cell suspension” for “concentration”, “to” for “to be”, “the” for “0.05 mL of”, “suspension” for “suspension (about 1.5×10^6 cells)”, “nude mouse at the inoculation volume of 0.05 mL (about 1.5×10^6 cells)” for “Kunming mouse,”

| Substance | Weight of Lymph Node |
| --- | --- |
| ferrous sulfate | 29.48 ± 6.46 mg |

test system: SMMC-7721 metastatic lymph nodes; test: Lymph node metastasis inhibition experiment; type: in vivo, nude mouse; conditions: popliteal lymph nodes
Description: as §2, with “Cells growing in a log phase are collected,” for “Milky white and thick ascites is extracted from the H22 tumor-bearing mice,”, “concentration of the cell suspension” for “concentration”, “to” for “to be”, “the” for “0.05 mL of”, “suspension” for “suspension (about 1.5×10^6 cells)”, “nude mouse at the inoculation volume of 0.05 mL (about 1.5×10^6 cells)” for “Kunming mouse,”

| Substance | Weight of Lymph Node |
| --- | --- |
| ferrous sulfate | 50.19 ± 18.73 mg |

test system: TPC-1 metastatic lymph nodes; test: Lymph node metastasis inhibition experiment; type: in vivo, nude mouse; conditions: popliteal lymph nodes
Description: as §2, with “Cells growing in a log phase are collected,” for “Milky white and thick ascites is extracted from the H22 tumor-bearing mice,”, “concentration of the cell suspension” for “concentration”, “to” for “to be”, “the” for “0.05 mL of”, “suspension” for “suspension (about 1.5×10^6 cells)”, “nude mouse at the inoculation volume of 0.05 mL (about 1.5×10^6 cells)” for “Kunming mouse,”

| Substance | Weight of Lymph Node |
| --- | --- |
| ferrous sulfate | 35.71 ± 13.45 mg |

test system: HCT116 metastatic lymph nodes; test: Lymph node metastasis inhibition experiment; type: in vivo, nude mouse; conditions: popliteal lymph nodes
Description: as §2, with “Cells growing in a log phase are collected,” for “Milky white and thick ascites is extracted from the H22 tumor-bearing mice,”, “concentration of the cell suspension” for “concentration”, “to” for “to be”, “the” for “0.05 mL of”, “suspension” for “suspension (about 1.5×10^6 cells)”, “nude mouse at the inoculation volume of 0.05 mL (about 1.5×10^6 cells)” for “Kunming mouse,”

| Substance | Weight of Lymph Node |
| --- | --- |
| ferrous sulfate | 48.12 ± 10.58 mg |

test system: SGC-7901 metastatic lymph nodes; test: Lymph node metastasis inhibition experiment; type: in vivo, nude mouse; conditions: popliteal lymph nodes
Description: as §2, with “Cells growing in a log phase are collected,” for “Milky white and thick ascites is extracted from the H22 tumor-bearing mice,”, “concentration of the cell suspension” for “concentration”, “to” for “to be”, “the” for “0.05 mL of”, “suspension” for “suspension (about 1.5×10^6 cells)”, “nude mouse at the inoculation volume of 0.05 mL (about 1.5×10^6 cells)” for “Kunming mouse,”

| Substance | Weight of Lymph Node |
| --- | --- |
| ferrous sulfate | 50.12 ± 20.94 mg |

test system: MDA-MB-231 metastatic lymph nodes; test: Lymph node metastasis inhibition experiment; type: in vivo, nude mouse; conditions: popliteal lymph nodes
Description: as §2, with “Cells growing in a log phase are collected,” for “Milky white and thick ascites is extracted from the H22 tumor-bearing mice,”, “concentration of the cell suspension” for “concentration”, “to” for “to be”, “the” for “0.05 mL of”, “suspension” for “suspension (about 1.5×10^6 cells)”, “nude mouse at the inoculation volume of 0.05 mL (about 1.5×10^6 cells)” for “Kunming mouse,”

| Substance | Weight of Lymph Node |
| --- | --- |
| ferrous sulfate | 40.18 ± 11.14 mg |

test system: A549 metastatic lymph nodes; test: Lymph node metastasis inhibition experiment; type: in vivo, nude mouse; conditions: popliteal lymph nodes
Description: as §2, with “Cells growing in a log phase are collected,” for “Milky white and thick ascites is extracted from the H22 tumor-bearing mice,”, “concentration of the cell suspension” for “concentration”, “to” for “to be”, “the” for “0.05 mL of”, “suspension” for “suspension (about 1.5×10^6 cells)”, “nude mouse at the inoculation volume of 0.05 mL (about 1.5×10^6 cells)” for “Kunming mouse,”

| Substance | Weight of Lymph Node |
| --- | --- |
| ferrous sulfate | 44.97 ± 16.53 mg |

test system: SKOV3 metastatic lymph nodes; test: Lymph node metastasis inhibition experiment; type: in vivo, nude mouse; conditions: popliteal lymph nodes
Description: as §2, with “Cells growing in a log phase are collected,” for “Milky white and thick ascites is extracted from the H22 tumor-bearing mice,”, “concentration of the cell suspension” for “concentration”, “to” for “to be”, “the” for “0.05 mL of”, “suspension” for “suspension (about 1.5×10^6 cells)”, “nude mouse at the inoculation volume of 0.05 mL (about 1.5×10^6 cells)” for “Kunming mouse,”

| Substance | Weight of Lymph Node |
| --- | --- |
| ferrous sulfate | 35.62 ± 6.94 mg |
